Data published in US9301526B2, “Compounds with nematicidal activity” (BAYER INTELLECTUAL PROPERTY GMBH, priority 2011, dated 2016).

Legend:
Format in all cases: in vivo
[1] = system: Haemonchus contortus larvae; assay: Haemonchus contortus test (HAEMCO), larval mortality; settings: after 5 days, 100% = all larvae killed
Procedure: Haemonchus contortus—Test (HAEMCO)
(§1) Solvent: dimethyl sulfoxide
(§2) To produce a suitable preparation of active compound, 10 mg of active compound are dissolved in 0.5 ml solvent, and the concentrate is diluted with “Ringer's solution” to the desired concentration.
Approximately 40 Haemonchus contortus larvae are transferred into a test tube containing compound solution. After 5 days percentage of larval mortality are recorded. 100% efficacy means all larvae are killed, 0% efficacy means no larvae are killed.

Meloidogyne incognita = Meloidogyne incognita test (gall formation on salad seedlings in sand); settings: application rate 20 ppm; after 14 days; 100% = no galls, 0% = galls equal to untreated control
Procedure: Meloidogyne Incognita—Test
Solvent: 125.0 parts by weight of acetone
To produce a suitable preparation of active compound, 1 part by weight of active compound is mixed with the stated amount of solvent, and the concentrate is diluted with water to the desired concentration. Vessels are filled with sand, a solution of the active ingredient, a suspension containing eggs and larvae of Meloidogyne incognita and salad seeds. The salad seeds germinate and the seedlings grow. Galls develop in the roots.
After 14 days the nematicidal activity is determined on the basis of the percentage of gall formation. 100% means that no galls were found; 0% means that the number of galls found on the roots of the treated plants was equal to that in untreated control plants.

Cooperia curticei larvae = assay: Cooperia curticei test (COOPCU), larval mortality; settings: application rate 100 ppm; after 5 days; 100% = all larvae killed
Procedure: Cooperia Curticei-Test (COOPCU)
as §1, §2
Approximately 40 Cooperia curticei larvae are transferred into a test tube containing compound solution. After 5 days percentage of larval mortality are recorded. 100% efficacy means all larvae are killed; 0% efficacy means no larvae are killed.

Compound	nematicidal activity on the basis of the percentage of gall formation (Meloidogyne incognita) [%]	also measured
O=C(NCCc1c(F)c(F)nc(F)c1F)c1ccccc1C(F)(F)F [Ic-1]	100	activity (percentage of larval mortality) ([1]; application rate 100 ppm): 100%
CN(C)C(CNC(=O)c1ccccc1Cl)c1ncc(C(F)(F)F)cc1Cl (centres unmarked) [Ia-211]	90	–
CC(CNC(=O)c1ccccc1C(F)(F)F)c1ccc(C(F)(F)F)cn1 (centres unmarked) [Ia-46]	100	–
CC(CNC(=O)c1ccccc1C(F)(F)F)c1ncc(C(F)(F)F)cc1Cl (centres unmarked) [Ia-92]	100	–
O=C(NCCc1c(F)c(F)nc(F)c1F)c1ccccc1I [Ic-2]	100	–
O=C(NCCc1cnc(C(F)(F)F)cc1Cl)c1ccccc1C(F)F [Ib-50]	70	activity (percentage of larval mortality) ([1]; application rate 100 ppm): 100%
O=C(NCCc1cnc(C(F)(F)F)cc1Cl)c1ccccc1[N+](=O)[O-] [Ib-58]	90	–
CC(CNC(=O)c1ccccc1I)c1ncc(Cl)cc1Cl (centres unmarked) [Ia-114]	100	–
CC(NC(=O)c1ccccc1C(F)(F)F)C(CC1CC1)c1ncc(C(F)(F)F)cc1Cl (mixture of isomers) [Ia-143]	100	–
CC(Cc1ncc(C(F)(F)F)cc1Cl)NC(=O)c1ccccc1C(F)(F)F (single isomer, unassigned) [Ia-122]	100	–
O=C(NCC(F)(F)c1ncc(C(F)(F)F)cc1Cl)c1ccccc1C(F)(F)F [Ia-148]	100	–
CC(Cc1ncc(C(F)(F)F)cc1Cl)NC(=O)c1ccccc1[N+](=O)[O-] (centres unmarked) [Ia-196]	90	–
Cc1cc(CCNC(=O)c2ccccc2C(F)(F)F)c(Cl)cn1 [Ic-5]	90	–
CN(C)C(CNC(=O)c1ccccc1C(F)(F)F)c1ncc(C(F)(F)F)cc1Cl (centres unmarked) [Ia-212]	90	–
O=C(NCCc1c(Cl)cncc1Cl)c1ccc(F)c(F)c1 [Ic-26]	–	activity (percentage of larval mortality) (Cooperia curticei larvae): 80%
CC(Cc1ncc(C(F)(F)F)cc1Cl)NC(=O)c1ccccc1C(F)(F)F (centres unmarked) [Ia-43]	100	–
O=C(NCCc1cnc(C(F)(F)F)cc1Cl)c1ccccc1Br [Ib-52]	–	activity (percentage of larval mortality) ([1]; application rate 20 ppm): 80%
CC(CNC(=O)c1ccccc1I)c1ccc(C(F)(F)F)c(Cl)n1 (centres unmarked) [Ia-50]	100	–
CCc1ccc(C(=O)NCCc2ccnc(OC)c2)cc1 [Ic-58]	–	activity (percentage of larval mortality) (Cooperia curticei larvae): 80%
COc1cc(CCNC(=O)c2ccccc2OC)ccn1 [Ic-59]	–	activity (percentage of larval mortality) (Cooperia curticei larvae): 90%
CCOC(=O)C(CNC(=O)c1ccccc1C(F)(F)F)(C(=O)OC)c1ncc(C(F)(F)F)cc1Cl (centres unmarked) [Ia-6]	–	activity (percentage of larval mortality) ([1]; application rate 100 ppm): 80%
O=C(NCCc1cnc(C(F)(F)F)cc1Cl)c1ccccc1Cl [Ib-49]	–	activity (percentage of larval mortality) ([1]; application rate 100 ppm): 100%
CC(Cc1ncc(C(F)(F)F)cc1Cl)NC(=O)c1ccccc1I (centres unmarked) [Ia-140]	100	–
O=C(NCCc1cnc(C(F)(F)F)cc1Cl)c1ccccc1F [Ib-48]	–	activity (percentage of larval mortality) ([1]; application rate 100 ppm): 90%; activity (percentage of larval mortality) (Cooperia curticei larvae): 90%

Compound	nematicidal activity on the basis of the percentage of gall formation (Meloidogyne incognita) [%]	also measured
CC(CNC(=O)c1ccccc1I)c1ncc(C(F)(F)F)cc1Cl (centres unmarked) [Ia-177]	100	–
CC(Cc1ncc(C(F)(F)F)cc1Cl)NC(=O)c1ccccc1C(F)F (centres unmarked) [Ia-154]	100	–
O=C(NCCc1cc(F)ncc1F)c1ccccc1C(F)(F)F [Ic-7]	100	activity (percentage of larval mortality) ([1]; application rate 100 ppm): 100%
CC(CNC(=O)c1ccccc1I)c1ccc(C(F)(F)F)cn1 (centres unmarked) [Ia-47]	100	–
COC(=O)C(CNC(=O)c1ccccc1C(F)(F)F)c1ncc(C(F)(F)F)cc1Cl (centres unmarked) [Ia-5]	–	activity (percentage of larval mortality) ([1]; application rate 100 ppm): 80%
CC(Cc1ncc(C(F)(F)F)cc1Cl)NC(=O)c1c(F)cccc1F (centres unmarked) [Ia-170]	90	–
Cc1c(F)cccc1C(=O)NCC(C)c1ncc(C(F)(F)F)cc1Cl (centres unmarked) [Ia-70]	100	–
COC(=O)C(CNC(=O)c1ccccc1C(F)(F)F)(C(=O)OC)c1ncc(C(F)(F)F)cc1Cl [Ia-1]	–	activity (percentage of larval mortality) ([1]; application rate 100 ppm): 90%
CC(Cc1ncc(C(F)(F)F)cc1Cl)NC(=O)c1c(F)cccc1C(F)(F)F (centres unmarked) [Ia-174]	90	–
COc1cc(CCNC(=O)c2cccc(Cl)c2)ccn1 [Ic-75]	–	activity (percentage of larval mortality) (Cooperia curticei larvae): 90%
CC(Cc1ncc(C(F)(F)F)cc1Cl)NC(=O)c1ccccc1Br (centres unmarked) [Ia-153]	100	–
CC(C)(CNC(=O)c1ccccc1C(F)(F)F)c1ncc(C(F)(F)F)cc1Cl [Ia-93, N-{2-[3-chloro-5-(trifluoromethyl)pyridin-2-yl]-2-methylpropyl}-2-(trifluoromethyl)benzamide]	100	–
O=C(NCCc1cnc(C(F)(F)F)cc1Cl)c1c(F)cccc1F [Ib-51]	70	activity (percentage of larval mortality) ([1]; application rate 100 ppm): 90%
CC(Cc1ncc(C(F)(F)F)cc1Cl)NC(=O)c1ccccc1Cl (centres unmarked) [Ia-141]	100	–
CCC(Cc1ncc(C(F)(F)F)cc1Cl)NC(=O)c1ccccc1C(F)(F)F (centres unmarked) [Ia-110]	100	–
CC(CNC(=O)c1ccccc1C(F)(F)F)c1ncc(Cl)cc1Cl (centres unmarked) [Ia-113]	100	–
CC(Cc1ncc(Cl)cc1Cl)NC(=O)c1ccccc1C(F)(F)F (centres unmarked) [Ia-3]	100	–
COc1cc(CCNC(=O)c2ccc(C(F)(F)F)cc2)ccn1 [Ic-60]	–	activity (percentage of larval mortality) (Cooperia curticei larvae): 90%
O=C(NCC1(c2ccc(Cl)cn2)CC1)c1ccccc1C(F)(F)F [Ia-48]	–	activity (percentage of larval mortality) ([1]; application rate 100 ppm): 80%
CCC(CNC(=O)c1ccccc1C(F)(F)F)c1ccc(Cl)cn1 (centres unmarked) [Ia-131]	100	–
CC(Cc1ncc(C(F)(F)F)cc1Cl)NC(=O)c1ccccc1F (centres unmarked) [Ia-172]	90	–
O=C(NCCc1cnc(C(F)(F)F)cc1Cl)c1ccccc1C(F)(F)F [Ib-47]	90	activity (percentage of larval mortality) ([1]; application rate 100 ppm): 100%
O=C(NCC(F)(F)c1ncc(Cl)cc1Cl)c1ccccc1I [Ia-142]	100	–
